Results published in US20020091086A1, “Peptides that block viral infectivity and methods of use thereof” (priority 1999, published 2002).
Where two headings read alike, the source gives them in different places. Peptide text beside a SMILES is read from it.

Key:
HIV-1 = details: for reduction of HIV-1 infectivity, p24 antigen in cell supernatants: Table 6; for p24 / p24 (OD) / reduction (%): Experiment 5, H9 cells
Protocol: In Experiment 5, (Table 6) approximately 200,000 H9 cells were infected with HIV-1 at 25 TCID50 to test the inhibitory effect of different concentrations of peptides GPG-NH2, GKG-NH2 and CQG-NH2 and combinations of these peptides. As above, H9 cells were resuspended with or without the different peptides at varying concentrations in 1 ml of RPMI 1640 medium supplemented with 10% (v/v) heat-inactivated fetal bovine serum (FBS), penicillin (100 u/ml), streptomycin (100 u/ml), and Polybrene (2 μg/ml). Thereafter, viruses were added at 25 TCID50 in a volume of 20-30 μl. Cells were incubated with the indicated virus at 37° C. for 1 hr then pelleted at 170×g for 7 minutes. The cells were then washed three times in RPMI medium without peptides at room temperature and pelleted at 170×g for 7 minutes, as above. After the final wash, the cells were resuspended in RPMI culture medium containing the peptides in a 24-well plate (Costar corporation) and kept at 37° C. in 5% CO2 with humidity.
Culture supernatants were collected when the medium was changed at 4, 7, and 14 days post infection. The replication of each virus was monitored by detecting the presence of p24 in the supernatants. HIV p24 antigen was determined using a commercially available HIV p24 antigen detection kit (Abbott). The results are presented as absorbance values (OD) and higher absorbance indicates a higher protein concentration and greater viral infection. In some cases, serial dilutions of the supernatants were made so as to more accurately detect p24 concentration.
The percent reduction tabulated in Table 6 was calculated by dividing amount of p24 antigen detected in the peptide-treated sample by the amount of p24 antigen detected in the control sample, multiplying this dividend by 100 to obtain a percentage, and subtracting the dividend percentage by 100%.

HIV-1 SF-2 virus = assay: combination of GPG-NH2 with AZT or Ritonavir in HUT78 cells, p24; assay type: cell-based
HIV-1 DNA = assay: Southern blot of proviral DNA in HIV-1 infected H-9 cells; assay type: cell-based; details: 0-2,000 μM; first 24 h
Protocol: To study proviral DNA and viral RNA synthesis, DNA and RNA from HIV-1 infected H-9 cells cultured in the presence of a small peptide were prepared at various time points (0-48 h).

Jurkat-tat III cells = assay: in vitro uptake of 14C-labelled GPG-NH2 into cells; assay type: in vitro ADME; details: 165 nCi (0.7 μM)
Protocol: (§1) Additionally, the in vitro uptake of small peptides from the culture medium into the cells was studied in a series of experiments. Accordingly, HUT78, Jurkat-tat III, and MT-2 cells were incubated with ^14C-labelled GPG-NH2 165 nCi (equivalent to 0.7 μM of GPG-NH2). An uptake of the small peptide was observed and between 8% (Jurkat-tat III cells) and 20% (HUT78 cells) of the GPG-NH2 was incorporated in the cells.

HUT78 cells = assay: in vitro uptake of 14C-labelled GPG-NH2 into cells; assay type: in vitro ADME; details: 165 nCi (0.7 μM)
Protocol: as §1

polio viruses = assay type: cell-based
[1] = 18 day intraperitoneal toxicity in mice; assay type: in vivo; details: intraperitoneal 0.01, 0.1 and 1 g per kilo bodyweight and day, 18 days from age 6 days
Protocol: In this example, the results from several in vivo toxicology studies on small peptides administered in large doses to rodents are presented. In a first experiment, a large single dose of small peptide was delivered to mice and the toxic effects were analyzed. […] In a second experiment, several doses of varying amounts of a small peptide were delivered to mice for almost three weeks. Groups of mice (five mice in each group) were given intraperitoneal injections of GPG-NH2 (0.01, 0.1 and 1 g per kilo bodyweight and day, respectively) starting at an age of 6 days. Daily injections were continued for 18 days. […] In a similar experiment, a four week toxicology study of GPG-NH2 was performed by Scantox A/S in Denmark. GPG-NH2 was given orally to rats at doses up to 1 g per kilo bodyweight per day for twenty eight days.

[2] = acid stability in 50 mM KCl and 0.1M HCl by TLC; assay type: physicochemical; details: up to 24 hours
Protocol: Because an oral administration of a pharmaceutical comprising a small peptide is desired, the acid stability of small peptides was assessed by incubating ^14C-labelled GPG-NH2 in a solution of 50 mM KCl and 0.1M HCl for various time periods. After acid hydrolysis, the radiolabeled tripeptide was analyzed by thin layer chromatography (TLC) and the HPTLC plate was developed with 25% methanol: 25%isopropanol: 15% butanol: 35% (0.1N HOAc and 0.1N NaOAc).

[3] = tested on: HIV-1 isolate p7141 (high PI); assay: resistant HIV-1 isolates in PBMC, p24 ELISA; assay type: cell-based; details: GPG 100 μM, 14 days post infection

## NCCCC[C@H](NC(=O)CN)C(=O)NCC(N)=O [GKG-NH2, glycyl-lysyl-glycine amide] (H-Gly-Lys-Gly-NH2)
HIV-1; 300 μM
  reduction of HIV-1 infectivity, p24 antigen in cell supernatants: ~100%
HIV-1; Day 7 HIV-1, 100 μM
  p24: 1830 pg/mL
  p24 (OD): 0.566 × 10^1 OD
  reduction (%): 95%
HIV-1; Day 7 HIV-1, 300 μM
  p24: 388 pg/mL
  p24 (OD): 1.08 OD
  reduction (%): 99%
HIV-1; Day 7 HIV-1, 1000 μM
  p24: 273 pg/mL
  p24 (OD): 0.79 OD
  reduction (%): 100%
HIV-1; Day 14 HIV-1, 100 μM
  p24: 551000 pg/mL
  p24 (OD): 1.48 × 10^3 OD
  reduction (%): 61%
HIV-1; Day 14 HIV-1, 300 μM
  p24: 870 pg/mL
  p24 (OD): 0.33 × 10^1 OD
  reduction (%): 100%
HIV-1; Day 14 HIV-1, 1000 μM
  p24: 240 pg/mL
  p24 (OD): 0.11 × 10^1 OD
  reduction (%): 100%

## NCC(=O)N1CCC[C@H]1C(=O)NCC(N)=O [GPG-NH2, glycyl-prolyl-glycine amide] (H-Gly-Pro-Gly-NH2)
HIV-1 SF-2 virus; combination with AZT
  effect on inhibition of HIV-1 replication in the presence of AZT: synergistically
HIV-1 SF-2 virus; combination with Ritonavir
  antiviral effect together with Ritonavir: additive antiviral effect
HIV-1 DNA
  HIV-1 entry and proviral DNA synthesis: no inhibitory effect
HIV-1; Day 7 HIV-1, 20 μM
  p24: 421 pg/mL
  p24 (OD): 1.159 OD
  reduction (%): 99%
HIV-1; Day 7 HIV-1, 100 μM
  p24: 160 pg/mL
  p24 (OD): 0.508 OD
  reduction (%): 100%
HIV-1; Day 7 HIV-1, 300 μM
  p24: 180 pg/mL
  p24 (OD): 0.557 OD
  reduction (%): 100%
HIV-1; Day 14 HIV-1, 20 μM
  p24: 40600 pg/mL
  p24 (OD): 1.12 × 10^2 OD
  reduction (%): 97%
HIV-1; Day 14 HIV-1, 100 μM
  p24: 663 pg/mL
  p24 (OD): 1.76 OD
  reduction (%): 100%
HIV-1; Day 14 HIV-1, 300 μM
  p24: 498 pg/mL
  p24 (OD): 1.35 OD
  reduction (%): 100%
Jurkat-tat III cells
  GPG-NH2 incorporated in the cells: 8%
HUT78 cells
  GPG-NH2 incorporated in the cells: 20%
Polio viruses
  inhibition of polio virus: failed inhibit either influenza or polio viruses
[1]
  influence on the mice compared to controls: no significant influence
[2]
  TLC mobility after acid exposure: did not affect the mobility
[3]
  % reduction: (100%)
  HIV-1 p24: <500 pg/mL

## cystyl-glutaminyl-glycine amide [CQG-NH2]
HIV-1; 300 μM
  reduction of HIV-1 infectivity, p24 antigen in cell supernatants: ~100%
HIV-1; Day 7 HIV-1, 100 μM
  p24: 5620 pg/mL
  p24 (OD): 1.51 × 10^1 OD
  reduction (%): 86%
HIV-1; Day 7 HIV-1, 300 μM
  p24: 1920 pg/mL
  p24 (OD): 0.59 × 10^1 OD
  reduction (%): 95%
HIV-1; Day 7 HIV-1, 1000 μM
  p24: 320 pg/mL
  p24 (OD): 0.91 OD
  reduction (%): 99%
HIV-1; Day 14 HIV-1, 100 μM
  p24: 1.47e+06 pg/mL
  p24 (OD): 0.48 × 10^4 OD
  reduction (%): 0%
HIV-1; Day 14 HIV-1, 300 μM
  p24: 2400 pg/mL
  p24 (OD): 0.11 × 10^2 OD
  reduction (%): 100%
HIV-1; Day 14 HIV-1, 1000 μM
  p24: 280 pg/mL
  p24 (OD): 0.13 × 10^1 OD
  reduction (%): 100%
